Source: patent US20160120915A1, “METHODS FOR MANIPULATING IMMUNE RESPONSES BY ALTERING MICROBIOTA” (NEW YORK UNIVERSITY, priority 2013, published 2016)
Counter-ions that a name gives are not always drawn.

Legend:
[1] = test system: CD3+CD4+ lamina propria lymphocytes; assay: Flow cytometry of lamina propria lymphocytes for Th17-produced cytokines, 8-week STAT; assay type: in vivo, C57BL/6J mice; details: small and large intestine, STAT vs control
From the text: Lamina propria lymphocytes (LPL) from both small and large intestine were isolated from 8-week STAT mice (Control n=4, STAT n=4) and analyzed for intracellular, Th17-produced cytokines by flow cytometry. Plots gated on CD3+CD4+LPL. IL-17^+ and IL-22^+ cells were decreased in STAT compared to control mice in both the small and large intestine (FIG. 5).
Small and large intestines of mice were dissected, and all mesenteric fat and Peyer's patches were removed. Intestines were fileted for removal of stool, cut into 2 cm pieces, and washed with PBS. Tissues were transferred to tubes with 10 ml 1 mM DTT/PBS, shaken at RT for 10 minutes, and transferred to tubes with 30 mM EDTA and 10 mM HEPES in PBS. Intestines were then shaken at 37° C. for 20 minutes and washed in complete RPMI. The small and large intestines were digested at 37 C for 1.5 hours in 100 units/ml collagenase Type VIII (Sigma) and 150 μg/ml DNase (Sigma) in complete RPMI. Cells were filtered through a 50 micron filter, washed with 5 ml PBS, and pelleted. Cells were then resuspended in 40% Percoll (GE Healthcare), under-layed with 80% Percoll, and centrifuged at 2,200 rpm for 20 min at RT. […]
Cells were stimulated with phorbol 12-myristate 13-acetate (PMA) and ionomycin for 4 hours at 37 C with the addition of GolgiPlug (BD). […] Cells were acquired on an LSRII (BD) and analyzed with FlowJo (Tree Star, Inc.) software.

ileal tissue = assay: Ileal gene expression profiling by whole genome microarray, 8-week EarlySTAT; assay type: in vivo, C57BL/6J mice
Description: Ileal gene expression profiling of STAT, PAT, and control animal groups, was performed using the Affymetrix Genechip system (Affymetrix). Total RNA quality and quantity were determined using the Agilent 2100 Bioanalyser and Nanodrop ND-1000. Total RNA (100 ng) was used to prepare cDNA following the Affymetrix […] Express Kit labelling protocol (Affymetrix). Standardized array processing procedures recommended by Affymetrix were performed, including hybridization, fluidics processing and scanning of the Affymetrix MG-430 2.0 arrays. GeneSpring GX11 software (Agilent Technologies) was used to normalize the raw data (Affymetrix CEL files) by Robust Multichip Average algorithm (RMA).
997 reproducibly regulated genes were identified from ˜45,000 genes of the mouse genome by T-test (p<0.05) and fold change (≧1.2 or ≦0.8) in 8-week STAT mice (FIG. 8). DAVID analysis was performed using the regulated genes, and Gene Set Enrichment analysis (GSEA) was performed using whole gene data.

[2] = test system: Candidatus Arthromitus (segmented filamentous bacteria, SFB); assay: SFB relative abundance by 16S rRNA sequencing in microbiota donors; assay type: in vivo, C57BL6J mice; details: STAT donors, all time points
From the text: As above, mice were weaned onto normal chow at 4 weeks and switched to HFD at 6 weeks of age. Cecal microbiota was collected at 18 weeks of age and transferred to 3 to 4-week old germ-free Swiss-Webster mice, which were then housed in specific pathogen-free (SPF) conditions and fed HFD. Longitudinal fecal samples were collected and microbial communities were profiled by 16S rRNA sequencing using standard universal primers (Caporaso et al., ISMEJ 2012, 8:1621-4) at an average depth of approximately 5,800 sequences per sample.
Taxonomy was assigned based on the Green Genes May 2013 database, and the percentage of sequences classified as Candidatus Arthromitus, the candidate genus name for segmented filamentous bacteria (SFB), was calculated. […] SFB was present in all 3 control donor mice at levels >1%. SFB was undetectable in STAT donors at all time points, and in the Control donors following the switch to a HFD (8 weeks and beyond). SFB was nearly undetectable in microbiota recipients. Only one STAT-recipient mouse had SFB detected, and it was only one sequence that was classified as SFB out of 7,657 total sequences. SFB was not detected in any of the 7 Control or the other 7 STAT microbiota-recipients. […] Other microbiota taxa are thus important in the transferred phenotype.

[3] = test system: SAA genes in terminal ileum; assay: NOD: SAA 1, 2, 3 gene expression in terminal ileum by qPCR; assay type: in vivo; details: 6-week old NOD male mice, qPCR normalized to 18S rRNA, p<0.05
Description: The distal ileum (1 cm) without Peyer's Patches was collected from each mouse for RNA extraction and kept in RNAlater (Ambion) overnight at 4° C. Samples were stored at −80° C. until RNA extraction was performed.
Total RNA was extracted from mouse tissues using the RNeasy Mini Kit with on-column DNase treatment to remove contaminating gDNA (Qiagen), according to the manufacturer's instructions. 1 μg of total RNA was reverse transcribed to cDNA using Super Script II (Applied Biosystems) according to the manufacturer's instructions. To generate standards for expression analysis of each target gene, the cDNA region of interest was PCR-amplified and the product cloned into pGEM-T easy (Promega). qPCR was performed with Power SYBR Green PCR Master mix (Roche) and run in a LightCycler 480 system (Roche). Target mRNA was normalized to 18S rRNA as an internal control in each sample.
RNA was extracted from the terminal ileum of the 6-week old NOD mice. […] RNA was reverse transcribed into cDNA and then qPCR was performed for SAA1, 2, or 3 using an absolute quantitation method. Gene expression data were normalized to 18S rRNA expression. […] The results for this experiment show consistent decreases in expression of the SAA genes in the ileum, detected by two independent methods (microarray and qPCR). […]

| Structure (SMILES) | IL-17+ cells among CD3+CD4+ LPL [1] | IL-22+ cells among CD3+CD4+ LPL [1] | reproducibly regulated genes out of ~45,000 genes of the mouse genome (ileal tissue; 8-week STAT mice, T-test p<0.05 and fold change ≧1.2 or ≦0.8) | SAA1 expression in ileal tissue (microarray/GSEA) (ileal tissue; 8-week, STAT vs control) | SFB relative abundance [2] | SAA gene expression (SAA 1, 2, 3) in the terminal ileum [3] |
| --- | --- | --- | --- | --- | --- | --- |
| CC1(C)S[C@@H]2[C@H](NC(=O)COc3ccccc3)C(=O)N2[C@H]1C(=O)[O-].[K+] [STAT, penicillin VK] | decreased | decreased | 997 | strong down-regulation | undetectable |  |
| CC[C@H]1OC(=O)C[C@@H](O)[C@H](C)[C@@H](O[C@@H]2O[C@H](C)[C@@H](O[C@H]3C[C@@](C)(O)[C@@H](O)[C@H](C)O3)[C@H](N(C)C)[C@H]2O)[C@@H](CC=O)C[C@@H](C)C(=O)/C=C/C(C)=C/[C@@H]1CO[C@@H]1O[C@H](C)[C@@H](O)[C@@H](OC)[C@H]1OC [Tylosin, Tylosin tartrate] |  |  |  |  |  | significantly decreases |
